Results taken from US9133183B2, “Imidazolidinones and analogs exhibiting anti-cancer and anti-proliferative activities” (Deciphera Pharmaceuticals, LLC, priority 2013, dated 2015).

Tests used:
M-NFS-60 cells = test: M-NFS-60 cell proliferation assay (resazurin); assay type: cell-based; conditions: 67 h incubation
Protocol: M-NFS-60 cells (catalog #CRL-1838) were obtained from the American Type Culture Collection (ATCC, Manassas, Va.). Briefly, cells were grown in suspension in RPMI 1640 medium supplemented with 10% characterized fetal bovine serum (Invitrogen, Carlsbad, Calif.), 0.05 mM 2-mercaptoethanol, and 20 ng/mL mouse recombinant macrophage colony stimulating factor (M-CSF) at 37° C., 5% CO2, and 95% humidity. Cells were allowed to expand until reaching saturation at which point they were subcultured or harvested for assay use.
M-NFS-60 Cell Proliferation Assay
A serial dilution of test compound was dispensed into a 384-well black clear bottom plate (Corning, Corning, N.Y.). Two thousand five hundred cells were added per well in 50 μL complete growth medium. Plates were incubated for 67 h at 37° C., 5% CO2, and 95% humidity. At the end of the incubation period 10 μL of a 440 μM solution of resazurin (Sigma, St. Louis, Mo.) in PBS was added to each well and incubated for an additional 5 h at 37° C., 5% CO2, and 95% humidity. Plates were read on a Synergy2 reader (Biotek, Winooski, Vt.) using an excitation of 540 nm and an emission of 600 nm. IC50 values were calculated from a series of percent inhibition values determined at a range of inhibitor concentrations using software routines as implemented in the GraphPad Prism software package.

osteoclast precursors = test: Osteoclast tartrate-resistant acid phosphatase assay; assay type: cell-based; conditions: Osteoclast, 7-14 days, RANKL and M-CSF
Protocol: Osteoclast Tartrate-Resistant Acid Phosphatase Assay
A serial dilution of test compound was dispensed into a 384-well black clear bottom plate (Nalge Nunc International, Rochester, N.Y.). Compound was diluted by the addition of DMEM media supplemented with 10% characterized fetal bovine serum (Invitrogen, Carlsbad, Calif.). Diluted compound was transferred to a 384-well black clear bottom plate. Two-thousand five hundred osteoclast precursors (Lonza, Walkersville, Md.) were added per well in growth media containing Receptor Activator of Nuclear Factor Kappa-beta ligand (RANKL) and M-CSF (R&D Systems, Minneapolis, Minn.). Plates were incubated for 7-14 days at 37 degrees Celsius, 5% CO2, and 95% humidity to allow differentiation of osteoclast precursors. At the end of the incubation period, 10 μL of supernatant from each well was transferred to a clear 384-well plate. Tartrate-resistant acid phosphatase activity in the supernatant samples was determined using an acid phosphatase assay kit (Sigma, St. Louis, Mo.). Absorbance was measured at 550 nm using a plate reader. Data was analyzed using Prism software (Graphpad, San Diego, Calif.) to calculate IC50 values.

[1] = molecular target: unphosphorylated c-KIT kinase (uKIT, Seq. ID no. 2) (Homo sapiens (Human), UniProt P10721); test: uKit kinase assay (coupled pyruvate kinase/lactate dehydrogenase); assay type: biochemical; conditions: enzymatic assay, ATP 2000 μM
Protocol: uKit Kinase (Seq. ID No. 2) Assay
Activity of unphosphorylated c-KIT kinase (uKIT, Seq. ID no. 2) was determined by following the production of ADP from the KIT kinase reaction with ATP and poly E4Y as substrates through coupling with the pyruvate kinase/lactate dehydrogenase system (e.g., Schindler et al. Science (2000) 289: 1938-1942). In this assay, the oxidation of NADH (thus the decrease at A340 nm) was continuously monitored spectrophometrically. The reaction mixture (100 μl) contained unphosphorylated KIT (12 nM), polyE4Y (1 mg/mL), MgCl2 (10 mM), pyruvate kinase (4 units), lactate dehydrogenase (0.7 units), phosphoenol pyruvate (1 mM), and NADH (0.28 mM) and ATP (2000 μM) in 90 mM Tris buffer containing 0.2% octyl-glucoside and 1% DMSO, pH 7.5. The inhibition reaction was started by mixing serial diluted test compound with the above reaction mixture. The absorption at 340 nm was monitored continuously for 4 hours at 30° C. on Synergy 2 plate reader (BioTech). Reaction rates around 3 to 4 h time frame were used to calculate % inhibitions, from which IC50 values were generated.
uKit with N-Terminal GST Fusion Used for Screening (Seq ID No. 2)

[2] = molecular target: unphosphorylated c-FMS kinase (uFMS, Seq. ID no. 1) (Homo sapiens (Human), UniProt P07333); test: uFMS kinase assay (ADP production coupled to pyruvate kinase/lactate dehydrogenase); assay type: biochemical; conditions: enzymatic assay, ATP 500 μM; read-out: uFMS
Protocol: uFMS kinase (Seq. ID No. 1) Assay
In this assay, the oxidation of NADH (thus the decrease at A340 nm) was continuously monitored spectrophometrically. The reaction mixture (100 μL) contained FMS (purchased from Millipore) (10 nM), polyE4Y (1 mg/mL), MgCl2 (10 mM), pyruvate kinase (4 units), lactate dehydrogenase (0.7 units), phosphoenol pyruvate (1 mM), NADH (0.28 mM) and ATP (500 μM) in 90 mM Tris buffer containing 0.2% octyl-glucoside and 1% DMSO, pH 7.5. The inhibition reaction was started by mixing serial diluted test compound with the above reaction mixture. The absorption at 340 nm was monitored continuously for 4 hours at 30° C. on Synergy 2 plate reader. The reaction rate was calculated using the 3 to 4 h time frame. Percent inhibition was obtained by comparison of reaction rate with that of a control (i.e., in the absence of test compound). IC50 values were calculated from a series of percent inhibition values determined at a range of inhibitor concentrations using software routines as implemented in the GraphPad Prism software package.
uFMS Kinase Sequence (Y538-End) Used for Screening (Seq. ID No. 1)

unphosphorylated c-KIT kinase (uKIT, Seq. ID no. 2), sequence (P10721 other isoform, or with tags, fused parts or gaps): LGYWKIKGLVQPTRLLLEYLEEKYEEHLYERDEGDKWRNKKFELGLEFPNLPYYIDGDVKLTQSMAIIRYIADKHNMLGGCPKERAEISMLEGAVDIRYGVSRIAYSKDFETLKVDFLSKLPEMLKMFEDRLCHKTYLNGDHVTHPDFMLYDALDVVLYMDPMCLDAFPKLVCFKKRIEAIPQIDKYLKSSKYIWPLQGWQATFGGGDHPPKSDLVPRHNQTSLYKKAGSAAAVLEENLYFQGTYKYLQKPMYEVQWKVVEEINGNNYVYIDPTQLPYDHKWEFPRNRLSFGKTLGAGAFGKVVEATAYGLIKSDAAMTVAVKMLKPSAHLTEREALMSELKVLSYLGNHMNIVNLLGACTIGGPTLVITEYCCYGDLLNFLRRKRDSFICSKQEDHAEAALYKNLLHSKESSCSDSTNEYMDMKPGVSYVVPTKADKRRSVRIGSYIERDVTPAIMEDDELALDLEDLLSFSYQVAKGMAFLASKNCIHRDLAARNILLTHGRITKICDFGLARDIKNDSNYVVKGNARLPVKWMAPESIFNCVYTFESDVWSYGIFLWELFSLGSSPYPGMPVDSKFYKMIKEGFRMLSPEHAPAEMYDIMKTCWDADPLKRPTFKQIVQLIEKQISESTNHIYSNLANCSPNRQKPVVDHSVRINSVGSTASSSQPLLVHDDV
unphosphorylated c-FMS kinase (uFMS, Seq. ID no. 1), sequence (P07333 538-972): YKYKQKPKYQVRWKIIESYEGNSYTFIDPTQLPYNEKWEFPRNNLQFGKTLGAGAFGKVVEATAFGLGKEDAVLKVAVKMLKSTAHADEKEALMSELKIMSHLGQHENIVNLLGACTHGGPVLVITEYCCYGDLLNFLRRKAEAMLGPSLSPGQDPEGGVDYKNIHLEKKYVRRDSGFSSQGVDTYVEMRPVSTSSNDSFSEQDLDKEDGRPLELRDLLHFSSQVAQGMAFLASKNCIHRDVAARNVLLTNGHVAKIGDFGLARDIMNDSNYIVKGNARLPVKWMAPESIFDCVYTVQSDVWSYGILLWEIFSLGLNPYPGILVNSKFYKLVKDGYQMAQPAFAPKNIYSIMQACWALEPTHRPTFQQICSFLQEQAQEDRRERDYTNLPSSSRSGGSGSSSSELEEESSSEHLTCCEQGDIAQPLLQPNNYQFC

Structure (SMILES) | IC50 (M-NFS-60 cells) | IC50 (osteoclast precursors) | IC50 [1] | IC50 [2]
Cc1ncc(-c2cc(Oc3ccc(NC(=O)N4CCN(C5CC5)C4=O)nc3C)ccn2)s1 [Example 65, 3-cyclopropyl-N-(6-methyl-5-((2-(2-methylthiazol-5-yl)pyridin-4-yl)oxy)pyridin-2-yl)-2-oxoimidazolidine-1-carboxamide] | 0.1 to 1 µM | 0.01 to 0.1 µM | 0.1 to 1 µM | 0.01 to 0.1 µM
Cc1ncc(-c2cc(Oc3ccc(NC(=O)N4CCN(C5CCOCC5)C4=O)nc3C)ccn2)s1 [Example 66, N-(6-methyl-5-((2-(2-methylthiazol-5-yl)pyridin-4-yl)oxy)pyridin-2-yl)-2-oxo-3-(tetrahydro-2H-pyran-4-yl)imidazolidine-1-carboxamide] | 0.1 to 1 µM | 0.1 to 1 µM | 0.1 to 1 µM | 0.01 to 0.1 µM
COCCN1CCN(C(=O)Nc2ccc(Oc3ccnc(-c4cnc(C)s4)c3)c(C)n2)C1=O [Example 67, 3-(2-methoxyethyl)-N-(6-methyl-5-((2-(2-methylthiazol-5-yl)pyridin-4-yl)oxy)pyridin-2-yl)-2-oxoimidazolidine-1-carboxamide] | 0.1 to 1 µM | 0.1 to 1 µM | > 1 µM | 0.1 to 1 µM
Cc1ncc(-c2cc(Oc3ccc(NC(=O)N4CCN(C)C4=O)nc3C)ccn2)s1 [Example 73, 3-methyl-N-(6-methyl-5-((2-(2-methylthiazol-5-yl)pyridin-4-yl)oxy)pyridin-2-yl)-2-oxoimidazolidine-1-carboxamide] | > 1 µM | 0.1 to 1 µM | > 1 µM | 0.1 to 1 µM
Cc1ncc(-c2cc(Oc3ccc(NC(=O)N4CCN(CC(F)(F)F)C4=O)nc3C)ccn2)s1 [Example 74, N-(6-methyl-5-((2-(2-methylthiazol-5-yl)pyridin-4-yl)oxy)pyridin-2-yl)-2-oxo-3-(2,2,2-trifluoroethyl)imidazolidine-1-carboxamide] | 0.1 to 1 µM | 0.01 to 0.1 µM | 0.1 to 1 µM | 0.01 to 0.1 µM
Cc1ncc(-c2cc(Oc3ccc(NC(=O)N4CCN(C5CCCC5)C4=O)nc3C)ccn2)s1 [Example 75, 3-cyclopentyl-N-(6-methyl-5-((2-(2-methylthiazol-5-yl)pyridin-4-yl)oxy)pyridin-2-yl)-2-oxoimidazolidine-1-carboxamide] | 0.01 to 0.1 µM | 0.01 to 0.1 µM | 0.1 to 1 µM | < 0.01 µM
Cc1cn(-c2cc(Oc3ccc(NC(=O)N4CCN(CC(F)(F)F)C4=O)nc3)ccn2)cn1 [Example 76, N-(5-((2-(4-methyl-1H-imidazol-1-yl)pyridin-4-yl)oxy)pyridin-2-yl)-2-oxo-3-(2,2,2-trifluoroethyl)imidazolidine-1-carboxamide] | 0.1 to 1 µM | 0.1 to 1 µM | 0.1 to 1 µM | 0.01 to 0.1 µM
Cc1cn(-c2cc(Oc3ccc(NC(=O)N4CCN(C5CCOCC5)C4=O)nc3)ccn2)cn1 [Example 77, N-(5-((2-(4-methyl-11H-imidazol-1-yl)pyridin-4-yl)oxy)pyridin-2-yl)-2-oxo-3-(tetrahydro-2H-pyran-4-yl)imidazolidine-1-carboxamide] | 0.1 to 1 µM | 0.1 to 1 µM | 0.01 to 0.1 µM | 0.01 to 0.1 µM
CCc1nc(NC(=O)N2CCN(C3CCCC3)C2=O)ccc1Oc1ccnc(-c2cnc(C)s2)c1 [Example 78, 3-cyclopentyl-N-(6-ethyl-5-((2-(2-methylthiazol-5-yl)pyridin-4-yl)oxy)pyridin-2-yl)-2-oxoimidazolidine-1-carboxamide] | > 1 µM | 0.1 to 1 µM | > 1 µM | 0.01 to 0.1 µM
CCN1CCN(C(=O)Nc2ccc(Oc3ccnc(-n4cnc(C)c4)c3)cn2)C1=O [Example 79, 3-ethyl-N-(5-((2-(4-methyl-1H-imidazol-1-yl)pyridin-4-yl)oxy)pyridin-2-yl)-2-oxoimidazolidine-1-carboxamide] | > 1 µM | 0.1 to 1 µM | 0.1 to 1 µM | 0.1 to 1 µM
COCCN1CCN(C(=O)Nc2ccc(Oc3ccnc(-c4cn(C)cn4)c3)c(C)n2)C1=O [Example 81, 3-(2-methoxyethyl)-N-(6-methyl-5-((2-(1-methyl-1H-imidazol-4-yl)pyridin-4-yl)oxy)pyridin-2-yl)-2-oxoimidazolidine-1-carboxamide] | 0.1 to 1 µM | 0.1 to 1 µM | > 1 µM | 0.01 to 0.1 µM
CCN1CCN(C(=O)Nc2ccc(Oc3ccnc(-c4cn(C)cn4)c3)cn2)C1=O [Example 82, 3-ethyl-N-(5-((2-(1-methyl-1H-imidazol-4-yl)pyridin-4-yl)oxy)pyridin-2-yl)-2-oxoimidazolidine-1-carboxamide] | 0.01 to 0.1 µM | 0.01 to 0.1 µM | < 0.01 µM | 0.01 to 0.1 µM
Cc1cc(-c2cc(Oc3ccc(NC(=O)N4CCN(C5CCOCC5)C4=O)nc3C)ccn2)ccn1 [Example 87, N-(6-methyl-5-((2′-methyl-[2,4′-bipyridin]-4-yl)oxy)pyridin-2-yl)-2-oxo-3-(tetrahydro-2H-pyran-4-yl)imidazolidine-1-carboxamide] | 0.01 to 0.1 µM | 0.01 to 0.1 µM | 0.01 to 0.1 µM | < 0.01 µM
